Structures can show the parent of a compound that is named as a salt.
What was measured:
Wistar fatty rats [1] = experiment: Effect on ketosis caused by a biguanide (metformin) in Wistar fatty rats (total ketone bodies in plasma); type: in vivo, rat; conditions: for concentration of total ketone bodies, higher as compared with Group A (without metformin and pioglitazone hydrochloride) / concentration of total ketone bodies in plasma: metformin 300 mg/kg/day; for concentration of total ketone bodies, higher as compared with Group A (without metformin and pioglitazone hydrochloride): difference of means; for concentration of total ketone bodies in plasma: Wistar fatty rats, pioglitazone hydrochloride 1 mg/kg/day, mean ± SD, n=6
Text: 3-Hydroxybutyric acid (3-HB) in samples is specifically oxidized by 3-hydroxybutyric acid dehydrogenase (3-HBDH) in the presence of an oxidized form of β-thionicotinamide adenine dinucleotide (thio-NAD) to produce acetoacetic acid (AcAc) and a reduced form of β-thionicotinamide adenine dinucleotide (thio-NADH). […] The concentration of total ketone bodies which is the sum of 3-HB and AcAc in samples can be calculated by determining a production speed of thio-NADH thus obtained.
Effects of an insulin sensitizer (pioglitazone hydrochloride) on ketosis caused by a biguanide (metformin) in Wistar fatty rats, NIDDM models, were studied.
First, Wistar fatty rats (31 week-old, male) were divided into three groups, namely Groups A, B and C, each consisting of 6 rats. […] After administration, blood was collected from the tail vein of the Wistar fatty rats, and total ketone bodies in the plasma were determined in the same manner as in Experimental Example 1.
In the table, W. fatty. Met and Pio mean Wistar fatty rat, metformin and pioglitazone hydrochloride, respectively. Figures in the table represent means ± standard deviation (number of subjects=6).
The concentration of total ketone bodies in plasma of Wistar fatty rats was determined in the same manner as in Experimental Example 2 except that the administration period was changed from 14 days to 7 days.

Wistar fatty rats [2] = experiment: Effect on diabetic ketosis in Wistar fatty rats (total ketone bodies in plasma); type: in vivo, rat; conditions: for concentration of total ketone bodies in plasma: Wistar fatty rats (31 week-old, male), pioglitazone hydrochloride 1 mg/kg body weight/day orally for 14 days, mean ± SD, n=6, control without Pio 170.23 ± 22.33 μM
Text: For instance, diabetic ketosis is observed in a Wistar fatty rat which is an animal model of non-insulin dependent (type 2) diabetes mellitus. Therefore, a ketosis improving action of a test compound can be evaluated by comparing concentration of total ketone bodies in plasma between Wistar fatty rat groups with administration of a test compound (Experimental group) and Wistar fatty rat groups without administration of a test compound (Control group). […] 3-Hydroxybutyric acid (3-HB) in samples is specifically oxidized by 3-hydroxybutyric acid dehydrogenase (3-HBDH) in the presence of an oxidized form of β-thionicotinamide adenine dinucleotide (thio-NAD) to produce acetoacetic acid (AcAc) and a reduced form of β-thionicotinamide adenine dinucleotide (thio-NADH). […] Effects of an insulin sensitizer (pioglitazone hydrochloride) on diabetic ketosis in Wistar fatty rats, animal models of non-insulin dependent diabetes mellitus (NIDDM), were studied. First, Wistar fatty rats (31 week-old, male) were divided into two groups each consisting of 6 rats. […] After administration, blood was collected from the tail vein of the Wistar fatty rats, and total ketone bodies in the plasma were enzymatically determined by using AutoWako total ketone bodies (Trade name)(Wako Pure Chemical Industries, Ltd., Japan) and Hitachi 7070 Autoanalyzing machine. Wistar lean rats (6 rats), animal models of non diabetes mellitus (normal), were orally administered with a 0.5 (w/v) % aqueous methylcellulose solution for 14 days. Then, total ketone bodies in the plasma were determined in the same manner as above. In the table, W, lean, W. fatty and Pio mean Wistar lean rat, Wistar fatty rat and pioglitazone hydrochloride, respectively. Figures in the table represent means ± standard deviation (number of subjects=6).

Structure (SMILES) | concentration of total ketone bodies, higher as compared with Group A (without metformin and pioglitazone hydrochloride) (Wistar fatty rats [1]; 7 days) [µM] | concentration of total ketone bodies, higher as compared with Group A (without metformin and pioglitazone hydrochloride) (Wistar fatty rats [1]; 14 days) [µM] | concentration of total ketone bodies in plasma (Wistar fatty rats [1]; 7 days orally, Group A control 160.37 ± 14.00 μM) [µM] | concentration of total ketone bodies in plasma (Wistar fatty rats [1]; 7 days orally, Group A control 160.37 ± 14.00 μM, listed as Met) [µM] | concentration of total ketone bodies in plasma (Wistar fatty rats [1]; 14 days orally, Group A control 170.23 ± 22.33 μM) [µM] | concentration of total ketone bodies in plasma (Wistar fatty rats [1]; 14 days orally, Group A control 170.23 ± 22.33 μM, listed as Met) [µM] | concentration of total ketone bodies in plasma (Wistar fatty rats [2]) [µM] | concentration of total ketone bodies in plasma (Wistar fatty rats [2]; listed as Pio) [µM] | effect on diabetic ketosis (conclusion in words) (Wistar fatty rats [2]; Wistar fatty rats, 1 mg/kg/day orally, 14 days) | concentration of total ketone bodies, lower as compared with the group without pioglitazone hydrochloride (Wistar fatty rats [2]; Wistar fatty rats, 1 mg/kg/day orally, 14 days, difference of means) [µM] | effect on ketosis caused by a biguanide (conclusion in words) (Wistar fatty rats [1]; Experimental Examples 2 and 3 (14 and 7 days))
CN(C)C(=N)N=C(N)N [metformin] | 38.86 | 11.77 | 199.23 ± 55.69 | 199.23 ± 55.69 | 182.00 ± 22.50 | 182.00 ± 22.50 | – | – | – | – | –
CCc1ccc(CCOc2ccc(CC3SC(=O)NC3=O)cc2)nc1 (centres unmarked) [pioglitazone hydrochloride, 5-[4-[2-(5-ethyl-2-pyridyl)ethoxy]benzyl]-2,4-thiazolidinedione] | – | – | – | – | – | – | 125.72 ± 12.49 | 125.72 ± 12.49 | improves diabetic ketosis | 44.51 | improves ketosis caused by a biguanide (metformin)
